Structures are written as SMILES. Active and inactive are the calls of the source. No cut-off for these calls is given here.

The subject of this assay is Cortical neurone. The assay is described as follows: Neurotrophic activity in Sprague-Dawley rat cortical neurons assessed as promotion of neurite outgrowth at 0.1 to 10 uM. Format: functional.
As for `C[C@@H]1CC[C@@]2(O)C13CC(=O)C1(C)C2(C)CO[C@]1(OC(=O)c1ccccc1)[C@@H]3O`, the result was inactive.
For the molecule `C[C@@H]1CC[C@@]2(O)[C@@]13C[C@@]1(O)OC(OC[C@@]2(C)[C@@]1(C)O)[C@@H]3O`, the result was inactive.
In the case of `C[C@@H]1CC[C@@]2(O)C13CC(=O)C1(C)C2(C)CO[C@]1(O)[C@@H]3O` it was “Active”; in that of `CC1=CC[C@]2(O)[C@@]3(C)COC4O[C@](O)(C[C@@]12[C@H]4O)[C@]3(C)O`, “inactive”; in that of `C[C@@H]1CC=C2[C@@]13C[C@@]1(O)OC(OC[C@@]2(C)[C@@]1(C)O)[C@@H]3O`, “inactive”.
For `C[C@@H]1C[C@@H](O)[C@@]2(O)[C@@]13C[C@@]1(O)OC(OC[C@@]2(C)[C@@]1(C)O)[C@@H]3O` the value was “inactive”.

These data come from ChEMBL document CHEMBL1150810, “Structure and neurotrophic activity of seco-prezizaane-type sesquiterpenes from Illicium merrillianum” (J Nat Prod, 2001).
